Tests used:
Type in all cases: physicochemical
[1] = Emulsion stability testing of nonionic emulsifiers, Hallcomid solvent series; parameters: key to 24 h separation, appearance / 1 h separation, appearance / 1 h separation, amount: C = creamy; CO = creamy oil; O = oil; GC = gritty cream; NS = no separation; OC = oily cream; key to Spon. (spontaneity): G = good; F = fair; P = poor
[2] = Surfactant phase behavior study (cross-polarized microscopy); settings: room temperature, in deionized water
How it was run: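 Saturated analogs serve as comparators. Water dilutions of the product, stepped at 2-4% near transitions, equilibrated between slide and cover glass and assigned phase by cross-polarized microscopy texture at 100-400×, 20-22° C. Boundaries lie within ±5% actives; some samples checked by viscosity at 25° C.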

[3] = Emulsion stability testing of nonionic emulsifiers, Hallcomid solvent series; parameters: key: C = creamy; CO = creamy oil; O = oil; GC = gritty cream; NS = no separation; OC = oily cream; Tr. = trace; settings: Bifenthrin 240 g/L in Hallcomid M-8-10, 34 ppm water
Method: Nonionic samples contain a low amount of water (<1%) and are prepared as emulsifiable concentrates with three pesticides using two different solvent systems. In the aromatic solvent series, the nonionic sample replaces Toximul® 8240 (castor oil ethoxylate, 36 POE, Stepan), and in the Hallcomid™ (N,N-dimethylcaprylamide/N,N-dimethylcapramide, Stepan) solvent series, the nonionic sample replaces Ninex® MT-630F.
Hallcomid Solvent Series.
Sample preparation: The surfactants are combined and stirred until homogeneous, with the nonionic sample melted if needed prior to combination. Controls 1-3 are made by using Ninex MT-630F in the amounts indicated instead of the nonionic sample.
Emulsion Stability Testing
A Mohr pipette is used to feed pesticide/surfactant concentrates to each cylinder.

[4] = Emulsion stability testing of nonionic emulsifiers, aromatic solvent series; parameters: key to 24 h separation, appearance / 1 h separation, appearance / 1 h separation, amount: C = creamy; CO = creamy oil; O = oil; GC = gritty cream; NS = no separation; OC = oily cream; key to Spon. (spontaneity): G = good; F = fair; P = poor
[5] = Fabric cleaning: compaction (surfactant blends)
Method: The sample is formulated into surfactant blends having high actives content. Two experimental derivatives, A12-13 and A12-21, are evaluated.
In a first experiment, a three-component surfactant blend is prepared. This blend comprises the experimental sample (30 wt. %), a linear alkylbenzene sulfonate (15 wt. %), and an alkyl ether sulfate (15 wt. %). The appearance and viscosity of the blend are compared with those of similar three-component blends in which a standard alcohol ethoxylate replaces the experimental sample.
In a second experiment, a two-component surfactant blend is prepared in which the experimental sample and a linear alkylbenzene sulfonate are combined at a 1:1 actives ratio, beginning with a high actives blend having a cloudy appearance. Water is gradually added and mixed with the surfactant blend at room temperature. […]

[6] = 2,4-D diester 480 g/L in Hallcomid M-8-10, 34 ppm water
[7] = 2,4-D diester 480 g/L in Hallcomid M-8-10, 1000 ppm water
[8] = Bifenthrin 240 g/L in Hallcomid M-8-10, 34 ppm water
[9] = Bifenthrin 240 g/L in Hallcomid M-8-10, 1000 ppm water
[10] = Tebuconazole 360 g/L in Hallcomid M-8-10, 34 ppm water
[11] = Tebuconazole 360 g/L in Hallcomid M-8-10, 1000 ppm water
[12] = 2,4-D ester 480 g/L in Exxsol D-110, 34 ppm water
[13] = 2,4-D ester 480 g/L in Exxsol D-110, 1000 ppm water
[14] = Bifenthrin 240 g/L in Aromatic 100, 34 ppm water
[15] = Bifenthrin 240 g/L in Aromatic 100, 1000 ppm water
[16] = Tebuconazole 360 g/L in N-methyl-2-pyrrolidone, 34 ppm water
[17] = Tebuconazole 360 g/L in N-methyl-2-pyrrolidone, 1000 ppm water
[18] = three-component blend: sample 30 wt. %, linear alkylbenzene sulfonate 15 wt. %, alkyl ether sulfate 15 wt. %

With `CCC=CCCCCCCCCOCCOCCOCCOCCOCCO` (mixture of isomers) [A12-10] the “1 h separation, amount” value [1, 6] was 5.3 mL, the “1 h separation, appearance” value [1, 6] was “C” and the “24 h separation, amount” value [1, 6] was 9.2 mL. The “24 h separation, appearance” value [1, 6] was “C”, the “Spon. (spontaneity)” value [1, 6] was “P” and the “1 h separation, amount” value [1, 7] was 6.8 mL. For the same compound, the “1 h separation, appearance” value [1, 7] was “C”, the “24 h separation, amount” value [1, 7] was 8.7 mL and the “24 h separation, appearance” value [1, 7] was “C”. The “Spon. (spontaneity)” value [1, 7] was “F”, the “1 h separation, amount” value [1, 8] was “NS” and the “24 h separation, appearance” value [1, 8] was “C”. The “Spon. (spontaneity)” value [1, 8] was “G”, the “1 h separation, amount” value [1, 9] was 6.1 mL and the “1 h separation, appearance” value [1, 9] was “O”. For the same compound, the “24 h separation, amount” value [1, 9] was 3 O, 2 CO, the “Spon. (spontaneity)” value [1, 9] was “F” and the “1 h separation, amount” value [1, 10] was 2.1 mL. For the same compound, the “1 h separation, appearance” value [1, 10] was “C”, the “24 h separation, amount” value [1, 10] was 5.1 mL and the “24 h separation, appearance” value [1, 10] was “C”. For the same compound, the “Spon. (spontaneity)” value [1, 10] was “F”, the “1 h separation, amount” value [1, 11] was 2 mL and the “1 h separation, appearance” value [1, 11] was “C”. The “24 h separation, amount” value [1, 11] was 4.2 mL, the “24 h separation, appearance” value [1, 11] was “C” and the “Spon. (spontaneity)” value [1, 11] was “F”. For the same compound, the Lamellar phase region [2] was 50-80 % Actives Level, the Lamellar/Isotropic phase region [2] was 35-50 % Actives Level and the “24 h separation, amount” value [3] was “Tr”. For the same compound, the “1 h separation, amount” value [4, 12] was 0.7 mL, the “1 h separation, appearance” value [4, 12] was “C” and the “24 h separation, amount” value [4, 12] was 3.9 mL. The “24 h separation, appearance” value [4, 12] was “C”, the “Spon. (spontaneity)” value [4, 12] was “F” and the “1 h separation, amount” value [4, 13] was 4.6 mL. For the same compound, the “1 h separation, appearance” value [4, 13] was “CO”, the “24 h separation, amount” value [4, 13] was 0.75 O, 4.3 CO and the “Spon. (spontaneity)” value [4, 13] was “P”. The “1 h separation, amount” value [4, 14] was 2.3 mL, the “1 h separation, appearance” value [4, 14] was “C” and the “24 h separation, amount” value [4, 14] was 9 mL. For the same compound, the “24 h separation, appearance” value [4, 14] was “C”, the “Spon. (spontaneity)” value [4, 14] was “F” and the “Spon. (spontaneity)” value [4, 15] was “F”. For the same compound, the “1 h separation, amount” value [4, 16] was 2.6 mL, the “1 h separation, appearance” value [4, 16] was “C” and the “24 h separation, amount” value [4, 16] was 4 mL. The “24 h separation, appearance” value [4, 16] was “GC”, the “Spon. (spontaneity)” value [4, 16] was “P” and the “1 h separation, amount” value [4, 17] was 2.1 mL. For the same compound, the “1 h separation, appearance” value [4, 17] was “C”, the “24 h separation, amount” value [4, 17] was 3.2 mL and the “24 h separation, appearance” value [4, 17] was “GC”. The “Spon. (spontaneity)” value [4, 17] was “P”.

In the case of `CCC=CCCCCCCCCOCCOCCOCCOCCOCCOCCOCCO` (mixture of isomers) [A12-13], the “1 h separation, amount” value [1, 6] is reported as 4.4 mL, the “1 h separation, appearance” value [1, 6] is reported as “C” and the “24 h separation, amount” value [1, 6] is reported as 9.6 mL. For the same compound, the “24 h separation, appearance” value [1, 6] was “C”, the “Spon. (spontaneity)” value [1, 6] was “P” and the “1 h separation, amount” value [1, 7] was 5.2 mL. For the same compound, the “1 h separation, appearance” value [1, 7] was “C”, the “24 h separation, amount” value [1, 7] was 9 mL and the “24 h separation, appearance” value [1, 7] was “C”. For the same compound, the “Spon. (spontaneity)” value [1, 7] was “F”, the “1 h separation, amount” value [1, 8] was “NS” and the “24 h separation, appearance” value [1, 8] was “C”. For the same compound, the “Spon. (spontaneity)” value [1, 8] was “G”, the “1 h separation, amount” value [1, 9] was 5.1 mL and the “1 h separation, appearance” value [1, 9] was “CO”. The “24 h separation, amount” value [1, 9] was 3 O, 2 CO, the “Spon. (spontaneity)” value [1, 9] was “F” and the “1 h separation, amount” value [1, 10] was 1.3 mL. For the same compound, the “1 h separation, appearance” value [1, 10] was “C”, the “24 h separation, amount” value [1, 10] was 4.1 mL and the “24 h separation, appearance” value [1, 10] was “C”. The “Spon. (spontaneity)” value [1, 10] was “F”, the “1 h separation, amount” value [1, 11] was 1.8 mL and the “1 h separation, appearance” value [1, 11] was “C”. The “24 h separation, amount” value [1, 11] was 4.3 mL, the “24 h separation, appearance” value [1, 11] was “C” and the “Spon. (spontaneity)” value [1, 11] was “G”. For the same compound, the Hexagonal phase region [2] was 35-57 % Actives Level, the “24 h separation, amount” value [3] was “Tr” and the “Appearance, 25° C.” value [5, 18] was “cloudy, flowable gel”. For the same compound, the Viscosity [5, 18] was 5400 cPs, the “% Actives at which blend is clear and homogeneous at 25° C.” value ([5]; two-component blend with linear alkylbenzene sulfonate, 1:1 actives ratio) was 41 % Actives and the “1 h separation, amount” value [4, 12] was 3.5 mL. The “1 h separation, appearance” value [4, 12] was “C”, the “24 h separation, amount” value [4, 12] was 5 mL and the “24 h separation, appearance” value [4, 12] was “C”. The “Spon. (spontaneity)” value [4, 12] was “F”, the “1 h separation, amount” value [4, 13] was 5.2 mL and the “1 h separation, appearance” value [4, 13] was “CO”. The “24 h separation, amount” value [4, 13] was 5 mL, the “24 h separation, appearance” value [4, 13] was “CO” and the “Spon. (spontaneity)” value [4, 13] was “F”. For the same compound, the “1 h separation, amount” value [4, 14] was 1 mL, the “1 h separation, appearance” value [4, 14] was “C” and the “24 h separation, amount” value [4, 14] was 4.9 mL. For the same compound, the “24 h separation, appearance” value [4, 14] was “C”, the “Spon. (spontaneity)” value [4, 14] was “F” and the “1 h separation, amount” value [4, 15] was “Tr”. The “1 h separation, appearance” value [4, 15] was “C”, the “24 h separation, amount” value [4, 15] was 0.5 CO, 1 C and the “Spon. (spontaneity)” value [4, 15] was “G”. The “1 h separation, amount” value [4, 16] was 1.8 mL, the “1 h separation, appearance” value [4, 16] was “C” and the “24 h separation, amount” value [4, 16] was 3 GC, 4 CO. The “Spon. (spontaneity)” value [4, 16] was “P”, the “1 h separation, amount” value [4, 17] was 2.4 mL and the “1 h separation, appearance” value [4, 17] was “C”. The “24 h separation, amount” value [4, 17] was 3.5 mL, the “24 h separation, appearance” value [4, 17] was “GC” and the “Spon. (spontaneity)” value [4, 17] was “P”.

Reference: patent publication US9708251B2, “Unsaturated fatty alcohol alkoxylates from natural oil metathesis” (Stepan Company, priority 2012, dated 2017)
